Values after ≈ are worked out from the molar mass of the structure shown.

Common to all, as to type: functional
Experiment [1] has as its system Bemisia tabaci. The experiment in a line: Resistance factor, ratio of LC50 for adult female Bemisia tabaci B-biotype NJ-Imi (sweet potato whitefly) (G30) to LC50 for adult female B-type Bemisia tabaci NJ.
Experiment [2] deals with Bemisia tabaci. The experiment in a line: Insecticidal activity against adult female imidacloprid-resistant Bemisia tabaci B-biotype NJ-Imi (sweet potato whitefly) (G30) in cotton leaf discs assessed as mortality treated for 10 secs prior to adult infestation measured after 72 hr by leaf-dip bioassay. The settings on record: foliar.
The test system of experiment [3] is Bemisia tabaci. The experiment in a line: Insecticidal activity against adult female imidacloprid-susceptible Bemisia tabaci B-biotype NJ (sweet potato whitefly) in cotton leaf discs assessed as mortality treated for 10 secs prior to adult infestation measured after 72 hr by leaf-dip bioassay. The settings on record: foliar.
Experiment [4] concerns Bemisia tabaci. The experiment in a line: Resistance factor, ratio of LC50 for adult female Bemisia tabaci B-biotype NJ-Imi (sweet potato whitefly) (G15) to LC50 for adult female B-type Bemisia tabaci NJ.
Experiment [5] concerns Bemisia tabaci. The experiment in a line: Insecticidal activity against adult female imidacloprid-resistant Bemisia tabaci B-biotype NJ-Imi (sweet potato whitefly) (G15) in cotton leaf discs assessed as mortality treated for 10 secs prior to adult infestation measured after 72 hr by leaf-dip bioassay. The settings on record: foliar.
The test system of experiment [6] is Bemisia tabaci. The experiment in a line: Insecticidal activity against female F1 progeny generated from reciprocal cross between female Bemisia tabaci B-biotype NJ-Imi (sweet potato whitefly) with male Bemisia tabaci B-biotype NJ in cotton leaf discs assessed as mortality treated for 10 secs prior to adult infestation measured after 72 hr by leaf-dip bioassay. The settings on record: foliar.

For experiment [7], the system named is Bemisia tabaci. Nature of the experiment: Insecticidal activity against adult male Bemisia tabaci B-biotype NJ-Imi (sweet potato whitefly) (G30) in cotton leaf discs assessed as mortality treated for 10 secs prior to adult infestation measured after 72 hr by leaf-dip bioassay. The conditions noted are these: foliar.
The test system of experiment [8] is Bemisia tabaci. The experiment in a line: Insecticidal activity against adult female Bemisia tabaci B-biotype NJ-Imi (sweet potato whitefly) (G15) in cotton leaf discs assessed as mortality treated for 10 secs prior to adult infestation measured after 72 hr by leaf-dip bioassay in presence of 100 mg/L cytochrome P450 monoxygenase inhibitor, PBO. The conditions noted are these: foliar.

For experiment [9], the system named is Bemisia tabaci. Nature of the experiment: Insecticidal activity against adult female Bemisia tabaci B-biotype NJ (sweet potato whitefly) in cotton leaf discs assessed as mortality treated for 10 secs prior to adult infestation measured after 72 hr by leaf-dip bioassay in presence of 100 mg/L esterase inhibitor, DEF. The settings on record: foliar.
Experiment [10] relates to Bemisia tabaci. The experiment in a line: Insecticidal activity against adult female Bemisia tabaci B-biotype NJ (sweet potato whitefly) in cotton leaf discs assessed as mortality treated for 10 secs prior to adult infestation measured after 72 hr by leaf-dip bioassay in presence of 100 mg/L GSH depleter, DEM. The conditions noted are these: foliar.
In experiment [11] the test system is Bemisia tabaci. The experiment in a line: Insecticidal activity against adult female Bemisia tabaci B-biotype NJ (sweet potato whitefly) in cotton leaf discs assessed as mortality treated for 10 secs prior to adult infestation measured after 72 hr by leaf-dip bioassay in presence of 100 mg/L cytochrome P450 monoxygenase inhibitor, PBO. The settings on record: foliar.

Experiment [12] deals with Bemisia tabaci. The experiment in a line: Resistance factor, ratio of LC50 for female B-biotype Bemisia tabaci NJ-Imi F1' (sweet potato whitefly) progeny to LC50 for adult female B-type Bemisia tabaci NJ.
For experiment [13], the system named is Bemisia tabaci. Nature of the experiment: Resistance factor, ratio of LC50 for adult male Bemisia tabaci B-biotype NJ-Imi (sweet potato whitefly) (G30) to LC50 for adult female B-type Bemisia tabaci NJ.
For experiment [14], the system named is Bemisia tabaci. The experiment in a line: Resistance factor, ratio of LC50 for female Bemisia tabaci B-biotype NJ-Imi F1 (sweet potato whitefly) progeny to LC50 for adult female B-type Bemisia tabaci NJ.
Experiment [15] has as its system Bemisia tabaci. Nature of the experiment: Insecticidal activity against female F1' progeny generated from reciprocal cross between male B-biotype Bemisia tabaci NJ-Imi (sweet potato whitefly) with female B-biotype Bemisia tabaci NJ in cotton leaf discs assessed as mortality treated for 10 secs prior to adult infestation measured after 72 hr by leaf-dip bioassay. The settings on record: foliar.

The subject of experiment [16] is Bemisia tabaci. Nature of the experiment: Insecticidal activity against adult female Bemisia tabaci B-biotype NJ-Imi (sweet potato whitefly) (G15) in cotton leaf discs assessed as mortality treated for 10 secs prior to adult infestation measured after 72 hr by leaf-dip bioassay in presence of 100 mg/L GSH depleter, DEM. The settings on record: foliar.
In experiment [17] the test system is Bemisia tabaci. Nature of the experiment: Synergistic ratio of LC50 for adult female Bemisia tabaci B-biotype NJ-Imi (sweet potato whitefly) (G15) to LC50 for adult female Bemisia tabaci B-biotype NJ in presence of 100 mg/L cytochrome P450 monoxygenase inhibitor, PBO.
Experiment [18] has as its system Bemisia tabaci. The experiment in a line: Synergistic ratio of LC50 for adult female Bemisia tabaci B-biotype NJ (sweet potato whitefly) to LC50 for adult female Bemisia tabaci B-biotype NJ in presence of 100 mg/L esterase inhibitor, DEF.
Experiment [19] concerns Bemisia tabaci. The experiment in a line: Synergistic ratio of LC50 for adult female Bemisia tabaci B-biotype NJ (sweet potato whitefly) to LC50 for adult female Bemisia tabaci B-biotype NJ in presence of 100 mg/L GSH depleter, DEM.
Experiment [20] concerns Bemisia tabaci. The experiment in a line: Synergistic ratio of LC50 for adult female Bemisia tabaci B-biotype NJ (sweet potato whitefly) to LC50 for adult female Bemisia tabaci B-biotype NJ in presence of 100 mg/L cytochrome P450 monoxygenase inhibitor, PBO.
Experiment [21] has as its system Bemisia tabaci. The experiment in a line: Insecticidal activity against adult female Bemisia tabaci B-biotype NJ-Imi (sweet potato whitefly) (G30) in cotton leaf discs assessed as mortality treated for 10 secs prior to adult infestation measured after 72 hr by leaf-dip bioassay in presence of 100 mg/L esterase inhibitor, DEF. The settings on record: foliar.
In experiment [22] the test system is Bemisia tabaci. The experiment in a line: Insecticidal activity against adult female Bemisia tabaci B-biotype NJ-Imi (sweet potato whitefly) (G30) in cotton leaf discs assessed as mortality treated for 10 secs prior to adult infestation measured after 72 hr by leaf-dip bioassay in presence of 100 mg/L GSH depleter, DEM. The conditions noted are these: foliar.

Experiment [23] deals with Bemisia tabaci. Nature of the experiment: Insecticidal activity against adult female Bemisia tabaci B-biotype NJ-Imi (sweet potato whitefly) (G30) in cotton leaf discs assessed as mortality treated for 10 secs prior to adult infestation measured after 72 hr by leaf-dip bioassay in presence of 100 mg/L cytochrome P450 monoxygenase inhibitor, PBO. The settings on record: foliar.

In experiment [24] the test system is Bemisia tabaci. The experiment in a line: Insecticidal activity against adult female Bemisia tabaci B-biotype NJ-Imi (sweet potato whitefly) (G15) in cotton leaf discs assessed as mortality treated for 10 secs prior to adult infestation measured after 72 hr by leaf-dip bioassay in presence of 100 mg/L esterase inhibitor, DEF. The conditions noted are these: foliar.

The test system of experiment [25] is Bemisia tabaci. Nature of the experiment: Synergistic ratio of LC50 for adult female Bemisia tabaci B-biotype NJ-Imi (sweet potato whitefly) (G30)to LC50 for adult female Bemisia tabaci B-biotype NJ in presence of 100 mg/L esterase inhibitor, DEF.
For experiment [26], the system named is Bemisia tabaci. Nature of the experiment: Synergistic ratio of LC50 for adult female Bemisia tabaci B-biotype NJ-Imi (sweet potato whitefly) (G30) to LC50 for adult female Bemisia tabaci B-biotype NJ in presence of 100 mg/L GSH depleter, DEM.
In experiment [27] the test system is Bemisia tabaci. Nature of the experiment: Synergistic ratio of LC50 for adult female Bemisia tabaci B-biotype NJ-Imi (sweet potato whitefly) (G30) to LC50 for adult female Bemisia tabaci B-biotype NJ in presence of 100 mg/L cytochrome P450 monoxygenase inhibitor, PBO.
Experiment [28] deals with Bemisia tabaci. The experiment in a line: Synergistic ratio of LC50 for adult female Bemisia tabaci B-biotype NJ-Imi (sweet potato whitefly) (G15)to LC50 for adult female Bemisia tabaci B-biotype NJ in presence of 100 mg/L esterase inhibitor, DEF.
Experiment [29] concerns Bemisia tabaci. The experiment in a line: Synergistic ratio of LC50 for adult female Bemisia tabaci B-biotype NJ-Imi (sweet potato whitefly) (G15) to LC50 for adult female Bemisia tabaci B-biotype NJ in presence of 100 mg/L GSH depleter, DEM.

As to `CC[C@H](C)[C@H]1O[C@]2(C=C[C@@H]1C)C[C@@H]1C[C@@H](C/C=C(\C)[C@@H](O[C@H]3C[C@H](OC)[C@@H](O[C@H]4C[C@H](OC)[C@@H](O)[C@H](C)O4)[C@H](C)O3)[C@@H](C)/C=C/C=C3\CO[C@@H]4[C@H](O)C(C)=C[C@@H](C(=O)O1)[C@]34O)O2.CO[C@H]1C[C@H](O[C@H]2[C@H](C)O[C@@H](O[C@@H]3/C(C)=C/C[C@@H]4C[C@@H](C[C@]5(C=C[C@H](C)[C@@H](C(C)C)O5)O4)OC(=O)[C@@H]4C=C(C)[C@@H](O)[C@H]5OC/C(=C\C=C\[C@@H]3C)[C@]54O)C[C@@H]2OC)O[C@@H](C)[C@@H]1O` [ABAMECTIN], the RatioLC50 in the experiment with Bemisia tabaci [1] came to 1. Further, the results for the LC50 in the experiment on Bemisia tabaci [2] and in the experiment on Bemisia tabaci [3] were 0.92 µg/mL and 0.8 µg/mL, respectively.
`C/C(=N\C#N)N(C)Cc1ccc(Cl)nc1` [ACETAMIPRID]: the RatioLC50 in the experiment on Bemisia tabaci [1] is given as 143; with Bemisia tabaci [4], 49. Further, the LC50 with Bemisia tabaci [2] worked out at 186 µg/mL (≈ 835 µM); in the experiment with Bemisia tabaci [5] it was 63 µg/mL (≈ 283 µM); in the experiment on Bemisia tabaci [3], 1.3 µg/mL (≈ 5.84 µM).
With `CC1(C)C(C=C(Cl)Cl)C1C(=O)OC(C#N)c1cccc(Oc2ccccc2)c1` (stereo not drawn) [ALPHA-CYPERMETHRIN], the RatioLC50 in the experiment with Bemisia tabaci [1] and in the experiment with Bemisia tabaci [4] was 1 throughout. Further, the results for the LC50 in the experiment with Bemisia tabaci [2], with Bemisia tabaci [5] and in the experiment with Bemisia tabaci [3] were 263 µg/mL (≈ 632 µM), 230 µg/mL (≈ 552 µM) and 226 µg/mL (≈ 543 µM), respectively.
For the compound `CN(C)C(CSC(N)=O)CSC(N)=O` [CARTAP], the RatioLC50 with Bemisia tabaci [1] is given as 11. Also, the figures for the LC50 with Bemisia tabaci [2] and in the experiment on Bemisia tabaci [3] were 17.4 µg/mL (≈ 73.3 µM) and 1.55 µg/mL (≈ 6.53 µM), respectively.
Consider `O=[N+]([O-])/N=C1\NCCN1Cc1ccc(Cl)nc1` [IMIDACLOPRID], for which the LC50 in the experiment on Bemisia tabaci [6] was 30.9 µg/mL (≈ 121 µM); in the experiment on Bemisia tabaci [7], 411 µg/mL (≈ 1610 µM); in the experiment on Bemisia tabaci [2] it was 485 µg/mL (≈ 1900 µM); in the experiment on Bemisia tabaci [5], 254 µg/mL (≈ 993 µM); in the experiment with Bemisia tabaci [8], 102 µg/mL; in the experiment on Bemisia tabaci [9], 0.4 µg/mL. Moreover, the LC50 came out at 1.22 µg/mL with Bemisia tabaci [10]; 0.91 µg/mL in the experiment on Bemisia tabaci [11]; 28.6 µg/mL (≈ 112 µM) with Bemisia tabaci [15]; 0.99 µg/mL (≈ 3.87 µM) with Bemisia tabaci [3]; 273 µg/mL in the experiment with Bemisia tabaci [16]; 371 µg/mL in the experiment with Bemisia tabaci [21]. For the same compound, the LC50 came out at 357 µg/mL with Bemisia tabaci [22], 231 µg/mL in the experiment with Bemisia tabaci [23] and 94 µg/mL in the experiment with Bemisia tabaci [24]. The RatioLC50 was 490 in the experiment with Bemisia tabaci [1]; 257 in the experiment with Bemisia tabaci [4]; 29 in the experiment on Bemisia tabaci [12]; 415 with Bemisia tabaci [13]; 31 in the experiment with Bemisia tabaci [14]; 2.5 in the experiment on Bemisia tabaci [17]. The RatioLC50 turned out to be 2.5 with Bemisia tabaci [18]; 0.8 with Bemisia tabaci [19]; 1.1 in the experiment on Bemisia tabaci [20]; 1.3 with Bemisia tabaci [25]; 1.4 in the experiment with Bemisia tabaci [26]; 2.1 with Bemisia tabaci [27]. The RatioLC50 worked out at 2.7 in the experiment with Bemisia tabaci [28] and 0.9 in the experiment with Bemisia tabaci [29].
For `CN(C)C(CSS(=O)(=O)[O-])CSS(=O)(=O)O.[Na+]` [MONOSULTAP], the RatioLC50 in the experiment on Bemisia tabaci [1] and in the experiment on Bemisia tabaci [4] was 7 in each case. Moreover, the results for the LC50 in the experiment on Bemisia tabaci [2], in the experiment with Bemisia tabaci [5] and in the experiment on Bemisia tabaci [3] were 294 µg/mL, 297 µg/mL and 43.9 µg/mL, respectively.
As to `CCN(Cc1ccc(Cl)nc1)/C(=C/[N+](=O)[O-])NC` [NITENPYRAM], the RatioLC50 in the experiment with Bemisia tabaci [1] turned out to be 94. The figures for the LC50 with Bemisia tabaci [2] and in the experiment on Bemisia tabaci [3] were 93 µg/mL (≈ 344 µM) and 0.99 µg/mL (≈ 3.66 µM), respectively.
With `N#C/N=C1\SCCN1Cc1ccc(Cl)nc1` [THIACLOPRID], in the experiment with Bemisia tabaci [1], the RatioLC50 worked out at 37. Besides, the LC50 in the experiment with Bemisia tabaci [2] is 37.3 µg/mL (≈ 148 µM); with Bemisia tabaci [3] it was 1.02 µg/mL (≈ 4.04 µM).
On to `CN1COCN(Cc2cnc(Cl)s2)/C1=N\[N+](=O)[O-]` [THIAMETHOXAM], for which the RatioLC50 is listed as 243 with Bemisia tabaci [1] and 92 with Bemisia tabaci [4]. Further, the figures for the LC50 in the experiment on Bemisia tabaci [2], in the experiment with Bemisia tabaci [5] and in the experiment on Bemisia tabaci [3] were 289 µg/mL (≈ 991 µM), 110 µg/mL (≈ 377 µM) and 1.19 µg/mL (≈ 4.08 µM), respectively.

The values above are taken from ChEMBL document CHEMBL3044982, “Cross-resistance, inheritance and biochemical mechanisms of imidacloprid resistance in B-biotype Bemisia tabaci” (2009).
